pIC50: −log10 of the molar value. Read-outs that look alike come from different tables or passages of the source. Where a SMILES comes first, the peptide text is derived from it. Bridges are numbered along the chain shown (N, C = ends). [ ]: non-standard residue; d: D form. The star is where a group is joined. ξ: configuration not given here. Phe(4-COOH) = N[C@@H](Cc1ccc(C(=O)O)cc1)C(=O)O; Bip = N[C@@H](Cc1ccc(-c2ccccc2)cc1)C(=O)O; Phe(3-Me) = Cc1cccc(C[C@H](N)C(=O)O)c1; Phe(4-F) = N[C@@H](Cc1ccc(F)cc1)C(=O)O; 4Pal = N[C@@H](Cc1ccncc1)C(=O)O; Cha = N[C@@H](CC1CCCCC1)C(=O)O; Cit = NC(=O)NCCC[C@H](N)C(=O)O; Ile(3ξ) = CCC(C)[C@H](N)C(=O)O; 4Abz = Nc1ccc(C(=O)O)cc1; Carboxymethyl = O=C(O)C*; NMeA = CN[C@@H](C)C(=O)O; Aun = NCCCCCCCCCCC(=O)O; Dab = NCC[C@H](N)C(=O)O; AEEA = NCCOCCOCC(=O)O
Molecular target: T1, PD-1/PD-L1 interaction (PE-labeled human PD-L1-Ig binding to Jurkat cell line over-expressing human PD-1) (Homo sapiens, UniProt Q15116)
T1 construct: expressed in transfected cells; host or cells: Jurkat
T1 sequence (Q15116 25-288): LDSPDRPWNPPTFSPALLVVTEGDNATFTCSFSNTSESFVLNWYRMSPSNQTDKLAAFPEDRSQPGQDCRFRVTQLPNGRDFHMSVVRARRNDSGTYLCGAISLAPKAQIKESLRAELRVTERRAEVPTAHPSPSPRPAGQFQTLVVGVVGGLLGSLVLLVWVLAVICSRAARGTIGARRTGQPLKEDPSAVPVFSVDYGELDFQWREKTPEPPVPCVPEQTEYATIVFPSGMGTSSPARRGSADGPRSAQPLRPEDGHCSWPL
Experiment: Jurkat-PD-1 Cell Binding High-Content Screening Assay (CBA)
Method in brief: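 Read-out: high-content imaging of cell-bound PE fluorescence, with Hoechst 33342 nuclear counterstain after paraformaldehyde fixation. Before labeled ligand (20 nM final, 1 h) was added, compound sat on the cells for 2 h at 37 °C in DMEM/10% FCS.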

[1] = Jurkat-hPD-1 cells, PE-labeled PD-L1-Ig 20 nM final; read-out: Jurkat HPD1 PDL1 IC50

SMILES | pIC50 (PE-labeled PD-L1-Ig 20 nM final, Jurkat-hPD-1 cells; read-out: Jurkat HPD1 PDL1 IC50) | pIC50 [1]
Cc1cccc(C[C@@H]2NC(=O)[C@H](CC(=O)O)NC(=O)[C@H](Cc3ccc(OCC(=O)O)cc3)NC(=O)[C@H](Cc3ccc(F)cc3)NC(=O)CSC[C@@H](C(=O)N[C@@H](CCN)C(=O)NCCOCCOCC(=O)NCCCCCCCCCCC(=O)O)NC(=O)[C@H](CC(=O)O)NC(=O)[C@H](C(C)C)NC(=O)[C@H](CC3CCCCC3)NC(=O)[C@H](CCN)NC(=O)[C@@H](CC(C)C)NC(=O)[C@H](C)N(C)C(=O)[C@H](Cc3ccc(OCC(=O)O)cc3)NC(=O)[C@H](Cc3ccc(-c4ccccc4)cc3)NC(=O)[C@H](Cc3ccc(OCC(=O)O)cc3)NC2=O)c1 [Example 2559] ({CH2CO}-[Phe(4-F)]Y(Carboxymethyl)D[Phe(3-Me)]Y(Carboxymethyl)[Bip]Y(Carboxymethyl)[NMeA][dL][Dab][Cha]VDC[Dab][AEEA][Aun]-OH; thioether N-14) | 7.54 | –
CCC(C)[C@@H]1NC(=O)[C@H](Cc2ccc(-c3ccccc3)cc2)NC(=O)[C@H](C(C)C)NC(=O)[C@H](Cc2c[nH]c3ccccc23)NC(=O)[C@H](CC(=O)O)NC(=O)[C@H](Cc2ccc(O)cc2)NC(=O)[C@H](CC(N)=O)NC(=O)CSC[C@@H](C(=O)N[C@H](CC(N)=O)C(=O)NCCOCCOCC(=O)NCCCCCCCCCCC(=O)O)NC(=O)[C@H](CO)NC(=O)[C@H](C(C)C)NC(=O)[C@H](CC(C)C)NC(=O)[C@H](CCN)NC(=O)[C@@H](CC(C)C)NC(=O)[C@H](C)N(C)C1=O (stereo partly drawn) [Example 2059] ({CH2CO}-NYDWV[Bip][Ile(3ξ)][NMeA][dL][Dab]LVSC[dN][AEEA][Aun]-OH; thioether N-14) | – | 7.47
CC(C)C[C@@H]1NC(=O)[C@H](Cc2c[nH]c3ccccc23)NC(=O)[C@H](CC(=O)O)NC(=O)[C@H](Cc2ccncc2)NC(=O)[C@H](Cc2ccc(OCC(=O)O)cc2)NC(=O)CSC[C@@H](C(=O)Nc2ccc(C(=O)NCCCCCCCCCCC(=O)O)cc2)NC(=O)[C@H](CCN)NC(=O)[C@H](C(C)C)NC(=O)[C@H](CC2CCCCC2)NC(=O)[C@H](CCN)NC(=O)[C@@H](CC(C)C)NC(=O)[C@H](C)N(C)C(=O)[C@H](C(C)C)NC(=O)[C@H](Cc2ccc(-c3ccccc3)cc2)NC1=O [Example 1212] ({CH2CO}-Y(Carboxymethyl)[4Pal]DWL[Bip]V[NMeA][dL][Dab][Cha]V[Dab]C[4Abz][Aun]-OH; thioether N-14) | – | 6.52
Cc1cccc(C[C@@H]2NC(=O)[C@H](CC(=O)O)NC(=O)[C@H](Cc3ccc(C(=O)O)cc3)NC(=O)[C@H](Cc3ccc(OCC(=O)O)cc3)NC(=O)CSC[C@@H](C(=O)NCCCCCCCCCCC(=O)O)NC(=O)[C@H](CCCNC(N)=O)NC(=O)[C@H](C(C)C)NC(=O)[C@H](CC3CCCCC3)NC(=O)[C@H](CCN)NC(=O)[C@@H](CC(C)C)NC(=O)[C@H](C)N(C)C(=O)[C@H](CC(C)C)NC(=O)[C@H](Cc3ccc(-c4ccccc4)cc3)NC(=O)[C@H](CC(C)C)NC2=O)c1 [Example 2245] ({CH2CO}-Y(Carboxymethyl)[Phe(4-COOH)]D[Phe(3-Me)]L[Bip]L[NMeA][dL][Dab][Cha]V[Cit]C[Aun]-OH; thioether N-14) | – | 7.60
Cc1cccc(C[C@@H]2NC(=O)[C@H](CC(=O)O)NC(=O)[C@H](Cc3ccc(O)cc3)NC(=O)[C@H](CC(N)=O)NC(=O)CSC[C@@H](C(=O)N[C@@H](CCN)C(=O)NCCCCCCCCCCC(=O)O)NC(=O)[C@H]([C@@H](C)O)NC(=O)[C@H](C(C)C)NC(=O)[C@H](CC3CCCCC3)NC(=O)[C@H](CCN)NC(=O)[C@@H](CC(C)C)NC(=O)[C@H](C)N(C)C(=O)[C@H](Cc3ccc(O)cc3)NC(=O)[C@H](Cc3ccc(-c4ccccc4)cc3)NC(=O)[C@H](C(C)C)NC2=O)c1 [Example 1321] ({CH2CO}-NYD[Phe(3-Me)]V[Bip]Y[NMeA][dL][Dab][Cha]VTC[Dab][Aun]-OH; thioether N-14) | – | 6.85
